Reference: patent US7713994B2 (Wyeth LLC, priority 2005, dated 2010)

Assays:
[1] = molecular target: T1, cyclin D1/cdk 4 enzyme (Homo sapiens, UniProt P11802); assay: CDK4 ELISA kinase assay (phospho-Rb ser 795 detection); assay type: biochemical; conditions: In Vitro Enzyme Assay, cyclin D1/cdk 4, read-out: CDK4 IC50
T1 construct: made in house; host or cells: Sf9 insect cells, recombinant baculovirus
Outline: (§1)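 ELISA format: plate-bound GST-Rb, 200 μM ATP, Sf9 cyclin/CDK enzyme, 1 h at 30° C; then anti-pRb Ser795 primary overnight at 4° C, HRP secondary, TMB. IC50 after no-substrate background subtraction.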

[2] = molecular target: T2, cyclin E/CDK2 enzyme (Homo sapiens, UniProt P24941); assay: CDK2 ELISA kinase assay (phospho-Rb ser 795 detection); assay type: biochemical; conditions: In Vitro Enzyme Assay, cyclin E/CDK2, read-out: CDK2 IC50
T2 construct: made in house; host or cells: Sf9 insect cells, recombinant baculovirus
Outline: as §1

[3] = molecular target: T3, cyclin B/CDK1 enzyme (Homo sapiens, UniProt P06493); assay: CDK1 ELISA kinase assay (phospho-Rb ser 795 detection); assay type: biochemical; conditions: In Vitro Enzyme Assay, cyclin B/CDK1, read-out: CDK1 IC50
T3 construct: purchased New England BioLabs; host or cells: Sf9 insect cells, recombinant baculovirus
Outline: as §1

[4] = test system: BT474; assay: Cytotoxicity assay (SRB), BT474; assay type: cell-based; conditions: Homo sapiens, BT-474, 144 h, BT474 cells, 6 days, SRB; read-out: In Vitro Cellular Activity IC50 BT474
Outline: (§2)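 Protein staining with sulforhodamine B after cold TCA fixation served as the survival endpoint (A540, relative to untreated cells). Before staining, cells were incubated with compound at 37 °C, 7% CO2 for 3 days, or 6 days for BT474.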

[5] = test system: HCT-116; assay: Cytotoxicity assay (SRB), HCT-116; assay type: cell-based; conditions: Homo sapiens, HCT-116, 72 h, HCT116 cells, 3 days, SRB; read-out: In Vitro Cellular Activity IC50 HCT116
Outline: as §2

[6] = test system: LoVo; assay: Cytotoxicity assay (SRB), LoVo; assay type: cell-based; conditions: Homo sapiens, LoVo, 72 h, LoVo cells, 3 days, SRB; read-out: In Vitro Cellular Activity IC50 LOVO
Outline: as §2

[7] = test system: MCF-7; assay: Cytotoxicity assay (SRB), MCF-7; assay type: cell-based; conditions: Homo sapiens, MCF7, 72 h, MCF-7 cells, 3 days, SRB; read-out: In Vitro Cellular Activity IC50 MCF-7
Outline: as §2

T3 sequence (P06493 whole entry): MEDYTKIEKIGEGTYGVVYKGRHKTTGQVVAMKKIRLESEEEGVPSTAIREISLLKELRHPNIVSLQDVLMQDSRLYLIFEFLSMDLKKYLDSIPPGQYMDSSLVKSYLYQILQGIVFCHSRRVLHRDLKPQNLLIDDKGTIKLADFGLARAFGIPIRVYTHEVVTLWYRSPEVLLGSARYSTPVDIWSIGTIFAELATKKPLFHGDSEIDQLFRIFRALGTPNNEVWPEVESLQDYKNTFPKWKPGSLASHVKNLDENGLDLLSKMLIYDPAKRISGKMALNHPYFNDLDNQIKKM
T3 sequence (P14635 whole entry partner): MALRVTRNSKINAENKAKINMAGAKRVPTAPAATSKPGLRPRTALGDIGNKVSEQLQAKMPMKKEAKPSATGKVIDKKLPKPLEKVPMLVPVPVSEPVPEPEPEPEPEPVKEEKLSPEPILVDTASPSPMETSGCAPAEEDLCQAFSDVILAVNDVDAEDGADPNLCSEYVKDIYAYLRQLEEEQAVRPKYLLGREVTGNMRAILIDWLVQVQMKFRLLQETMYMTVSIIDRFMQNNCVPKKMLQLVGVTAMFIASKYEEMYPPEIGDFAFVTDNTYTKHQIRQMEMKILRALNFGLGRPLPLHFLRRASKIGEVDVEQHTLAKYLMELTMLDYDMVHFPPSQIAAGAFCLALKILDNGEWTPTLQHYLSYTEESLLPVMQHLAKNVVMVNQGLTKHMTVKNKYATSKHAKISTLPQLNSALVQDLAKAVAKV
T1 sequence (P11802 whole entry, species assumed): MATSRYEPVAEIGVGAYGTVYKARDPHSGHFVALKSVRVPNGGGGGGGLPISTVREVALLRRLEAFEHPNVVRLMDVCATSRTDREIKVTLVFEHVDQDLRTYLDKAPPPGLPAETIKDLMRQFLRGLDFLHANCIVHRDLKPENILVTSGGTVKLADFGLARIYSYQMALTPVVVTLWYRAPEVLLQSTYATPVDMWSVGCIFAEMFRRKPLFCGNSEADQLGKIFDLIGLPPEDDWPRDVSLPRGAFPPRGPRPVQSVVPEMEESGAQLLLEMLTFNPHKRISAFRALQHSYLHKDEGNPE
T1 sequence (P24385 whole entry partner, species assumed): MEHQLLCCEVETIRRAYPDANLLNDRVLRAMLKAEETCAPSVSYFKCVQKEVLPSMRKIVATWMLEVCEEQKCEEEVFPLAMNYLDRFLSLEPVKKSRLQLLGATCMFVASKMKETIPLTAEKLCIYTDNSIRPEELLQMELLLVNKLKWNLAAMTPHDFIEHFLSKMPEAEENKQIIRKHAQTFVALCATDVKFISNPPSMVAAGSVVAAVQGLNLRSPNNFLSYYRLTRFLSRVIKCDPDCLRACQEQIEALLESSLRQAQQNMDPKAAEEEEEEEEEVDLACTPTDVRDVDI

| Structure (SMILES) | IC50 [1] [nM] | IC50 [2] [µM] | IC50 [3] [µM] | IC50 [4] [µM] | IC50 [5] [µM] | IC50 [6] [µM] | IC50 [7] [µM] |
| --- | --- | --- | --- | --- | --- | --- | --- |
| O=C1NC(=O)c2ccccc2/C1=C/Nc1ccc(CN2CCCC2)cc1 [Example 576, 4-[(4-Pyrrolidin-1-ylmethyl-phenylamino)-methylene]-4H-isoquinoline-1,3-dione] | 7500 | 39.8 | 13.8 | 7.4 | 6.3 | 19.1 | 7.6 |
| CN(Cc1ccc(NC=C2C(=O)NC(=O)c3ccccc32)cc1)C1CCCCC1 [Example 577, 4-({4-[(Cyclohexyl-methyl-amino)-methyl]-phenylamino}-methylene)-4H-isoquinoline-1,3-dione] | 34000 | > 50 | 17.7 | 24.5 | 9.6 | 14.4 | 20.1 |
| O=C1NC(=O)c2ccccc2C1=CNCc1ccc(NS(=O)(=O)CC(F)(F)F)cc1 [Example 591, 2,2,2-Trifluoro-ethanesulfonic acid (4{[(1,3-dioxo-2,3-dihydro-1H-isoquinolin-4-ylidenemethyl)-amino]-methyl}-phenyl)-amide] | 23200 | 25.4 | 20.3 | 36.4 | 41.5 | > 50 | 40 |
| CC(C)CC(=O)Nc1ccc(CN/C=C2\C(=O)NC(=O)c3ccccc32)cc1 [Example 593, N-(4{[(1,3-Dioxo-2,3-dihydro-1H-isoquinolin-4-ylidenemethyl)-amino]-methyl}-phenyl)-3-methyl-butyramide] | > 50000 | > 50 | 44.5 | 26.6 | 13.8 | 35.8 | 25.9 |
| CCN(CC)c1ccc2c(c1)C(=CNCc1ccc(O)c(O)c1)C(=O)NC2=O [Example 608, 6-Diethylamino-4-[(3,4-dihydroxy-benzylamino)-methylene]-4H-isoquinoline-1,3-dione] | 200 | 6.7 | 18.9 | 11.6 | 11.4 | 10.4 | 10.7 |
| O=C1NC(=O)c2ccc(N3CCCC3)cc2/C1=C/NCc1ccc(O)c(O)c1 [Example 609, 4-[(3,4-Dihydroxy-benzylamino)-methylene]-6-pyrrolidin-1-yl-4H-isoquinoline-1,3-dione] | 20 | 12.1 | 11.8 | 18.3 | 30.6 | 19.1 | 13.6 |
| O=C1NC(=O)c2ccc(N3Cc4ccccc4C3)cc2C1=CNCc1ccc(O)c(O)c1 [Example 610, 6-(1,3-Dihydro-isoindol-2-yl)-4-[(3,4-dihydroxy-benzylamino)-methylene]-4H-isoquinoline-1,3-dione] | 380 | 2.5 | 3.5 | 27 | 9.9 | 11.1 | 12.2 |
| O=C1NC(=O)c2ccc(N(CCC(F)(F)F)CCC(F)(F)F)cc2C1=CNCc1ccc(O)c(O)c1 [Example 611, 6-[Bis-(3,3,3-trifluoro-propyl)-amino]-4-[(3,4-dihydroxy-benzylamino)-methylene]-4H-isoquinoline-1,3-dione] | 12900 | 18.1 | 18.1 | 23.6 | 14.1 | 16.1 | 13.2 |
| CC1CCCN1Cc1ccc(NC=C2C(=O)NC(=O)c3ccccc32)cc1 (centres unmarked) [Example 617, 4-{[4-(2-Methyl-pyrrolidin-1-ylmethyl)-phenylamino]-methylene}-4H-isoquinoline-1,3-dione] | 16500 | 21.3 | > 50 | 18.5 | 7.6 | 14 | 11.2 |
| N#CCc1ccc(NC=C2C(=O)NC(=O)c3ccc(-c4ccc[nH]4)cc32)cc1 [Example 630, (4-{[1,3-Dioxo-6-(1H-pyrrol-2-yl)-2,3-dihydro-1H-isoquinolin-4-ylidenemethyl]-amino}-phenyl)-acetonitrile] | 200 | 17.3 | 31 | 45.3 | 26 | 45.8 | 20 |
| O=C1NC(=O)c2ccc(-c3cccc4cccnc34)cc2C1=CNCc1ccc(O)c(O)c1 [Example 642, 4-[(3,4-Dihydroxy-benzylamino)-methylene]-6-quinolin-8-yl-4H-isoquinoline-1,3-dione] | 1000 | 28.3 | > 50 | 14.2 | 20.5 | 12.1 | 12.7 |
| O=C1NC(=O)c2ccc(-c3cc4ccccc4s3)cc2C1=CNCc1ccc(O)c(O)c1 [Example 644, 6-Benzo[b]thiophen-2-yl-4-[(3,4-dihydroxy-benzylamino)-methylene]-4H-isoquinoline-1,3-dione] | 2000 | > 50 | > 50 | 17.9 | 14.1 | 19.1 | 6.3 |

Continued, in another order:

| IC50 [1] [nM] | IC50 [2] [µM] | IC50 [3] [µM] | Structure (SMILES) | IC50 [4] [µM] | IC50 [5] [µM] | IC50 [6] [µM] | IC50 [7] [µM] |
| --- | --- | --- | --- | --- | --- | --- | --- |
| 50 | 5.8 | 32.5 | O=C1NC(=O)c2ccc(-c3ccccc3)cc2C1=CNCc1ccc(O)c(O)c1 [Example 620, 4-[(3,4-Dihydroxy-benzylamino)-methylene]-6-phenyl-4H-isoquinoline-1,3-dione] | 15.5 | 11.7 | 11.5 | 11 |
| 10 | 4.1 | 8.1 | O=C1NC(=O)c2ccc(-c3ccco3)cc2C1=CNCc1ccc(O)c(O)c1 [Example 621, 4-[(3,4-Dihydroxy-benzylamino)-methylene]-6-furan-2-yl-4H-isoquinoline-1,3-dione] | 3.5 | 9.7 | 8.7 | 6.8 |
| 1200 | 19.7 | 16.9 | NS(=O)(=O)c1ccc(CNC=C2C(=O)NC(=O)c3ccc(-c4cc5ccccc5s4)cc32)cc1 [Example 635, 4-{[(6-Benzo[b]thiophen-2-yl-1,3-dioxo-2,3-dihydro-1H-isoquinolin-4-ylidenemethyl)-amino]-methyl}-benzenesulfonamide] | 37.2 | 23.6 | > 50 | 11.4 |
| 810 | 13.5 | 18 | NS(=O)(=O)c1ccc(CNC=C2C(=O)NC(=O)c3ccc(-c4ccc5[nH]ccc5c4)cc32)cc1 [Example 637, 4-({[6-(1H-Indol-5-yl)-1,3-dioxo-2,3-dihydro-1H-isoquinolin-4-ylidenemethyl]-amino}-methyl)-benzenesulfonamide] | 29.2 | > 50 | > 50 | 22.7 |
| 50 | 6 | 17.3 | NS(=O)(=O)c1ccc(CNC=C2C(=O)NC(=O)c3ccc(-c4ccc[nH]4)cc32)cc1 [Example 638, 4-({[1,3-Dioxo-6-(1H-pyrrol-2-yl)-2,3-dihydro-1H-isoquinolin-4-ylidenemethyl]-amino}-methyl)-benzenesulfonamide] | 35.9 | > 50 | > 50 | > 50 |
| 9200 | 19.7 | > 50 | NS(=O)(=O)c1ccc(CNC=C2C(=O)NC(=O)c3ccc(-c4cc[nH]c4)cc32)cc1 [Example 639, 4-({[1,3-Dioxo-6-(1H-pyrrol-3-yl)-2,3-dihydro-1H-isoquinolin-4-ylidenemethyl]-amino}-methyl)-benzenesulfonamide] | 18.7 | > 50 | > 50 | 25.8 |
| 1900 | > 50 | > 50 | O=C1NC(=O)c2ccc(-c3ccc4ccccc4c3)cc2C1=CNCc1ccc(O)c(O)c1 [Example 641, 4-[(3,4-Dihydroxy-benzylamino)-methylene]-6-naphthalen-2-yl-4H-isoquinoline-1,3-dione] | 19.7 | 10.5 | 9.4 | 9.6 |
| 40 | 2.9 | 13.5 | O=C1NC(=O)c2ccc(-c3ccc4[nH]ccc4c3)cc2C1=CNCc1ccc(O)c(O)c1 [Example 646, 4-[(3,4-Dihydroxy-benzylamino)-methylene]-6-(1H-indol-5-yl)-4H-isoquinoline-1,3-dione] | 11.9 | 8.4 | 10.7 | 7.7 |
